The values below are quoted from earlier work in US20020192293A1, “Method for manufacture of extended release dosage form” (priority 2001, published 2002).

Where two headings read alike, the source gives them in different places.

The conditions of the data set: in words.

In the case of `O=C1NC(=O)C(c2ccccc2)(c2ccccc2)N1` [phenytoin, 5,5-diphenyl-2,4-imidazolidinedione], the solubility in water entry is “poor solubility in water”. Also, for the setting “listed as free-phenytoin”, the solubility in water result is given as “practically insoluble in water”.
As to `O=C1N=C([O-])NC1(c1ccccc1)c1ccccc1.[Na+]` [sodium phenytoin, Sodium phenytoin], the solubility in water entry is on record as “much more soluble”.
